According to patent US20190322643A1 (Georgia State University Research Foundation, Inc., priority 2016, published 2019):

Legend:
A549 = test: Cytotoxicity / anti-proliferation assay (CCK-8), A549; format: cell-based; details: Homo sapiens, 72 h, CCK-8 kit
Method: (§1) Then the cells were exposed to the different inhibitors with various concentrations for 72 h. […] EC50s were calculated using GraphPad Prizm statistical package with sigmoidal variable slope dose response curve fit.
(§2) Cell anti-proliferation assays were performed to determine the toxicity of these inhibitors. […] These compounds were further evaluated against the control cell line HEK293 to test their toxicity with a non-cancerous cell line.

HDAC [1] = test: Cell based homogenous HDAC assay, Hela; details: read-out: IC50-HDAC Hela; Hela cells, mean ± SD of triplicate
Method: (§3) After 24 h, 9 μl inhibitors with different concentration were added to the HeLa cells and incubation was continued for 3 h under cell culture conditions. After this treatment period, 10 μl of a 2 mM stock solution of the substrate Boc-K(Ac)-AMC was added into the 96 well plates with Hela cells and inhibitors. […] A549 and K562 cell lines used the same method, respectively. IC50s were calculated using GraphPad Prizm statistical package with sigmoidal variable slope dose response curve fit.
(§4) Boc-K(Ac)-AMC was used as a cell-permeable HDAC substrate, as after deacetylation it is cleaved by trypsin to release the florescent 7-amino-4-methylcoumarin (AMC).

HCT-8 = test: Cytotoxicity / anti-proliferation assay (CCK-8), HCT-8; format: cell-based; details: Homo sapiens, 72 h, CCK-8 kit
Method: as §1, §2

[2] = biological target: T1, Mouse histone methyltransferase G9a (969-1263) (Mus musculus, UniProt Q9Z148); test: MALDI-TOF methylation study of G9a inhibition; format: biochemical; details: inhibitors at 5 μM concentration for 30 min
T1 construct: The 6His-sumo mG9a (969-1263) protein was purified using the following procedure; 6His-sumo (cleaved yes); made in house; host or cells: Escherichia coli BL21 (DE3)
T1 sequence (Q9Z148 969-1263): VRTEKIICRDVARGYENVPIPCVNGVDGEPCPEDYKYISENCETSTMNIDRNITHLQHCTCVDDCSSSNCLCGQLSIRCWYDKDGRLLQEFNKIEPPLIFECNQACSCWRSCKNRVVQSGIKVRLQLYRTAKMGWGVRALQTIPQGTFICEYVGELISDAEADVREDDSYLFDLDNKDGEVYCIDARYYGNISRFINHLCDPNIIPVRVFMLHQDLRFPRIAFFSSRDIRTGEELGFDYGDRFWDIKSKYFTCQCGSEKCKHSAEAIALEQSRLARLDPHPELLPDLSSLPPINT
Method: Mouse histone methyltransferase G9a (969-1263) cDNA was amplified from the cDNA of BALB/c mouse thymus, and the fragment was sub-cloned into a vector with a 6His-sumo tag. […] The 6His-sumo mG9a (969-1263) protein was purified using the following procedure: harvested cell pellet was re-suspended in 20 mM Tris (pH 8.0), 500 mM NaCl, 0.1% β-mercaptoethanol, and 1 mM PMSF. Cells were lysed by sonicating for 15 seconds with 6 second intervals for a total time of 15 minutes on an ice bath. […] The 6His-sumo tag was cleaved from the column by adding Ubiquitin-like-specific protease 1 (ULP-1) at 4° C. for 12 hours. Wash buffer was then run through the Ni^+ column again and the elution buffer collected. Subsequently, advanced protein purification was done by HiTrap Q HP sequential Superdex 200 10/300 GL. Elute of every step was analyzed by SDS PAGE, stained by Coomassie brilliant blue (CBB). […] The reaction was incubated at room temperature for 30 min, and stopped by TFA. 1 μL of the sample was mixed with CHCA matrix and m/z peaks were obtained at reflection positive mode. The results of mass spectrum were analyzed using the Bruker flex analysis software and data processing was carried out as described below. MALDI-TOF based experiments were performed according to the protocol developed by Chang et al. (Nat. Struct. Mol. Biol. 2009, 16, 312-317). MALDI spectra were collected using Bruker flex control software and analyzed by flex analysis. After labelling each cluster peaks of H3K9Me0, H3K9Me1 and H3K9Me2 for all of the tested concentrations, area under the cluster (AUC) were extracted by using the same flex analysis software. % abundance of each peak was calculated by following formula: A=% Abundance of (H3K9Me0)=area of H3K9Me0/(area of H3K9Me0+area of H3K9Me1+area of H3K9Me2) B=% Abundance of (H3K9Me1)=area of H3K9Me1/(area of H3K9Me0+area of H3K9Me1+area of H3K9Me2) C=% Abundance of (H3K9Me2)=area of H3K9Me2/(area of H3K9Me0+area of H3K9Me1+area of H3K9Me2). This was repeated for each spectra (3 multiples for each samples). […] Finally % inhibition was found by subtracting % MA(i) from 100. […] A biochemical assay using MALDI-TOF was used to visualize the effects of the synthesized compounds on G9a enzymatic activity. […] Struct. Mol. Biol. 2009, 16, 312-317).

HDAC [3] = test: Cell based homogenous HDAC assay, A549; details: read-out: IC50-HDAC A549; A549 cells, mean ± SD of triplicate
Method: as §3, §4

HDAC [4] = test: Cell based homogenous HDAC assay, K562; details: read-out: IC50-HDAC K562; K562 cells, mean ± SD of triplicate
Method: as §3, §4

G9a = biological target: T2, G9a (Homo sapiens, UniProt Q96KQ7); test: H3K9Me2 cell immunofluorescence in-cell Western (ICW) assay; format: cell-based; details: MDA-MB-231 cell line, 48 h
T2 construct: endogenous in cells; host or cells: MDA-MB-231
T2 sequence (Q96KQ7 1-1210): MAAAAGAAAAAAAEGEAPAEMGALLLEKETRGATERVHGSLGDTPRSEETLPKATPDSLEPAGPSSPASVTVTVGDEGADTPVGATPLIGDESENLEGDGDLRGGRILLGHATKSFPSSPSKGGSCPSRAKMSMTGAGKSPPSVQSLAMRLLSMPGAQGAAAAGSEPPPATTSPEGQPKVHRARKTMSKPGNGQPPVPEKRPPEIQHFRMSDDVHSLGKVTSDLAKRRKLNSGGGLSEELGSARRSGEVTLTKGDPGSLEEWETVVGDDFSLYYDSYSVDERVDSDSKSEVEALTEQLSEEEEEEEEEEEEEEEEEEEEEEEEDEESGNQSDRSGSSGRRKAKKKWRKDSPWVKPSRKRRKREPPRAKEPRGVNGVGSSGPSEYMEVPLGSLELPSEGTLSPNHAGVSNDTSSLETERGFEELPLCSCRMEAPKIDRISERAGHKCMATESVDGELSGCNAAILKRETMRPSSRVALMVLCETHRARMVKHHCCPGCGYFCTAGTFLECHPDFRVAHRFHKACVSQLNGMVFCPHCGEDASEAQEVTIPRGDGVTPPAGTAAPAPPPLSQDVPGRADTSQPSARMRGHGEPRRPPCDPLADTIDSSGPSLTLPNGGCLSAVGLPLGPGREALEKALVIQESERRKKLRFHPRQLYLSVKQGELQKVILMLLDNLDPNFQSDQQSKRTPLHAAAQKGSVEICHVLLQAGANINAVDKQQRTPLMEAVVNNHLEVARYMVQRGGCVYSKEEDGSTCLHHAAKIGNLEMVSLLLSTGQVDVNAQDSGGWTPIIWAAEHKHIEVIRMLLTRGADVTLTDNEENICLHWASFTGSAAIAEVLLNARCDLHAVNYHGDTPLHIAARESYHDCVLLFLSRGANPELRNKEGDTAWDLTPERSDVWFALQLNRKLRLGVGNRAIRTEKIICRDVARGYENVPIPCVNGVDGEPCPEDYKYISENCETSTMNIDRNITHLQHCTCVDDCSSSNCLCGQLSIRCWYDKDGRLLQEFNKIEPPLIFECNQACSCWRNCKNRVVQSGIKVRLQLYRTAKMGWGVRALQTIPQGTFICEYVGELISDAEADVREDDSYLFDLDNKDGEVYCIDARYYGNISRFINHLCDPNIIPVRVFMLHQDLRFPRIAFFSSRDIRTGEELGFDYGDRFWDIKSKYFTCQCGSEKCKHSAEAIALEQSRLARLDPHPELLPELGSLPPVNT
Method: After the incubation, the media was removed and 100 μl fixation and permeabilization solution (2% formaldehyde in PBS) for fixation was added for 30 min. And then use 200 μl 0.1% Triton X100 in PBS washing solution to wash (allow wash to shake on a plate shaker for 5 minutes). After five washes, cells were blocked for 1 h with 150 μl blocking buffer to each well (1% BSA in PBS) (allow blocking at RT with moderate shaking on a plate shaker). After 1 h, remove the blocking buffer from the blocking step and add primary antibody in blocking buffer to cover the bottom of each well. […] The plates were read on an Odyssey CLX (LiCor) scanner at both 800 nm (H3K9me2 signal) and 700 nm (cell tag 700 stain signal) channels. IC50s were calculated using GraphPad Prizm statistical package with sigmoidal variable slope dose response curve fit.

Row | Structure (SMILES) | EC50 (A549) | IC50 (HDAC [1]) | EC50 (HCT-8) | inhibition at 5 µM [2] | IC50 (HDAC [3]) | IC50 (HDAC [4]) | IC50 (G9a)
1 | COc1cc2nc(NCCNC(=O)CCCCCCC(=O)NO)nc(NC3CCN(C)CC3)c2cc1OC [Compound 4, N1-(2-((6,7-dimethoxy-4-((1-methylpiperidin-4-yl)amino)quinazolin-2-yl)amino)ethyl)-N8-hydroxyoctanediamide] | > 100 µM | > 100 µM | > 100 µM | 27 ± 12.2% | > 100 µM | > 100 µM | 96.7 ± 1.68 µM
2 | COc1cc2nc(NCCNC(=O)CCCCCCC(=O)NO)nc(NC3CCN(C(C)C)CC3)c2cc1OC [Compound 4a, N1-hydroxy-N8-(2-((4-((1-isopropylpiperidin-4-yl)amino)-6,7-dimethoxyquinazolin-2-yl)amino)ethyl)octanediamide] | > 100 µM | > 100 µM | > 100 µM | 11.2 ± 3.68% | > 100 µM | > 100 µM | 74.2 ± 1.94 µM
3 | COc1cc2nc(NCCNC(=O)CCCCCC(=O)NO)nc(NC3CCN(C)CC3)c2cc1OC [Compound 5, N1-(2-((6,7-dimethoxy-4-((1-methylpiperidin-4-yl)amino)quinazolin-2-yl)amino)ethyl)-N7-hydroxyheptanediamide] | > 100 µM | > 100 µM | > 100 µM | 65 ± 1.95% | > 100 µM | > 100 µM | > 100 µM
4 | COc1ccc2c(NC3CCN(C)CC3)nc(NCCNC(=O)CCCCCC(=O)NO)nc2c1 [Compound 14a, N1-hydroxy-N7-(2-((7-methoxy-4-((1-methylpiperidin-4-yl)amino)quinazolin-2yl)amino)ethyl) heptanediamide] | > 100 µM | – | > 100 µM | 29.7 ± 23.3% | – | – | 46.8 ± 1.97 µM
5 | COc1ccc2c(NC3CCN(Cc4ccccc4)CC3)nc(NCCNC(=O)CCCCC(=O)NO)nc2c1 [Compound 15, N1-(2-((4-((1-benzylpiperidin-4-yl)amino)-7-methoxyquinazolin-2-yl)amino)ethyl)-N6-hydroxyadipamide] | > 100 µM | – | > 100 µM | 47.9 ± 12.9% | – | – | 72.1 ± 1.37 µM
6 | COc1ccc2c(NC3CCN(C)CC3)nc(NCCNC(=O)CCCCC(=O)NO)nc2c1 [Compound 15a, N1-hydroxy-N6-(2-((7-methoxy-4-((1-methylpiperidin-4-yl)amino)quinazolin-2-yl)amino)ethyl)adipamide] | > 100 µM | – | > 100 µM | 69.1 ± 24.5% | – | – | 47 ± 3.33 µM
7 | COc1ccc2c(NC3CCN(Cc4ccccc4)CC3)nc(NCCNC(=O)CCCC(=O)NO)nc2c1 [Compound 16, N1-(2-((4-((1-benzylpiperidin-4-yl)amino)-7-methoxyquinazolin-2-yl)amino)ethyl)-N5-hydroxyglutaramide] | – | – | 83.9 µM | 40.3 ± 13.8% | – | – | 90.3 ± 3.75 µM
8 | COc1ccc2c(NC3CCN(C)CC3)nc(NCCNC(=O)CCCC(=O)NO)nc2c1 [Compound 16a, N1-hydroxy-N5-(2-((7-methoxy-4-((1-methylpiperidin-4-yl)amino)quinazolin-2-yl)amino)ethyl)glutaramide] | > 100 µM | – | > 100 µM | 40.3 ± 13.8% | – | – | 45.7 ± 1.76 µM
9 | COc1cc2nc(N3CCCN(C)CC3)nc(NC3CCN(C(=O)CCCCCCC(=O)NO)CC3)c2cc1OC [Compound 19, 8-(4-((6,7-dimethoxy-2-(4-methyl-1,4-diazepan-1-yl)quinazolin-4-yl)amino)piperidin-1-yl)-N-hydroxy-8-oxooctanamide] | > 100 µM | – | > 100 µM | 10.7 ± 25.9% | – | – | 99.6 ± 3.13 µM
10 | COc1cc2nc(N3CCCN(C)CC3)nc(NC3CCN(C(=O)CCCCCC(=O)NO)CC3)c2cc1OC [Compound 20, 7-(4-((6,7-dimethoxy-2-(4-methyl-1,4-diazepan-1-yl)quinazolin-4-yl)amino)piperidin-1-yl)-N-hydroxy-7-oxoheptanamide] | > 100 µM | – | > 100 µM | 14.6 ± 15.8% | – | – | 97.5 ± 2.78 µM
11 | COc1ccc2c(NCCNC(=O)CCCCCCC(=O)NO)nc(N3CCCN(C)CC3)nc2c1 [Compound 21, N1-hydroxy-N8-(2-((7-methoxy-2-(4-methyl-1,4-diazepan-1-yl)quinazolin-4 yl)amino)ethyl)octanediamide] | > 100 µM | – | > 100 µM | 22.8 ± 26.7% | – | – | –
12 | COc1ccc2c(NCCNC(=O)CCCCCC(=O)NO)nc(N3CCCN(C)CC3)nc2c1 [Compound 22, N1-hydroxy-N7-(2-((7-methoxy-2-(4-methyl-1,4-diazepan-1-yl)quinazolin-4-yl)amino)ethyl)heptanediamide] | > 100 µM | – | > 100 µM | 40.3 ± 15.3% | – | – | 60.6 ± 3.66 µM
